Assay results taken from patent US20040259823A1, “Cationic amphiphiles as transfection vehicles” (priority 2001, published 2004).

Assays:
Type in all cases: cell-based
[1] = tested on: COS-7 and HepG2 cells; assay: Cell survival after transfection (cell line not given); conditions: cell line and helper lipid not given; for % surv / % surv mean: Table 11
Procedure: (§1) Transfections were carried out following standard protocols as is described in EP 0755924. In numerous publications variations of transfection protocols are given. A person acquainted with the field of non-viral transfections, in particular transfections using cationic amphiphiles will be able to use the cationic amphiphiles of the invention in transfection methods known per se. In standard experiments COS-7 cells are transfected with plasmid DNA containing the β-galactosidase reporter gene. Upon successful transfection the cell produces the enzyme β-galactosidase whose activity can be easily measured. Other plasmids comprising alternative reporter genes such as the gene encoding Green Fluorescent Protein or Chloroamphenicol Acetyl Transferase are suited as well. For analyzing stable transfection a plasmid containing the neomycin resistance gene can be used. Toxicity of the cationic amphiphiles towards the cells can be monitored qualitatively and quantitatively by visual inspection of the cells and by a protein determination.
(§2) COS-7 and HepG2 cells were cultured in Dulbecco's Modified Eagle Medium (DMEM Gibco The Netherlands) containing 7% of fetal calf serum, 2 mM L-Glutamine, 100 units/ml of penicilin and […] of streptomycin at 37° C. in CO2/air (1:19).
(§3) Cells (1×10^5 cells/well) were seeded in 12-well plates and were allowed to grow overnight.
(§4) The complex of cationic amphiphile/helper lipid (1:1) with pCMV GFP was prepared at the charge ratio 2.5:1 (15 nmol lipid and 1 μg DNA), in 100 μl 10 mM HEPES (pH=7.4, 150 mM NaCl). After 10-15 min incubation at room temperature, the resulting complex was diluted in 1 ml medium (DMEM) and 0.5 ml of the mixture was added to the cells and incubated for 4 h at 37° C. The transfection efficiency expressed as a percentage of GFP positive cells was measured by FACS (Fluorescence Activated Cell Soorting) 48 hours after the transfection.
(§5) Control wells underwent identical steps except that no cationic amphiphile was added.

[2] = tested on: COS-7 and HepG2 cells; assay: Transfection with pCMV GFP plasmid, % GFP positive cells by FACS (cell line not given); conditions: cell line and helper lipid not given
Procedure: as §1
(§6) A solution of cationic amphiphile in a 50/50 molar ratio with DOPE, DOPC or cholesterol in chloroform was dried under a stream of nitrogen. The residual solvent was removed under vacuum. The lipid film was hydrated in water at room temperature and sonicated to clarity in a bath sonicator immediately before use.
(§7) A 4.7 kb pair plasmid containing the GFP reporter gene under control of the cytomegalovirus immediate early gene promoter/enhancer (pCMV GFP).DNA was isolated from E. coli using a Qiagen Plasmid Kit (QIAGEN Inc, USA). The plasmid concentration was determined by measuring the absoption at 260 nm using the relation 1.0 OD=50 μg/ml. The OD260/OD280 value was 1.95.
as §2, §3, §4, §5

[3] = tested on: COS-7 and HepG2 cells; assay: Toxicity towards the cells by protein determination versus control wells; conditions: protein determination compared with the reference value of control wells
Procedure: as §1, with “determination. Control wells underwent identical steps except that no cationic amphiphile was added.” for “determination.”

[4] = tested on: HepG2; assay: Cell survival after transfection (Table 3); conditions: HepG2, DOPE; also: tested at 6.8 µM
Procedure: as §1, §2, §3, §4, §5

[5] = tested on: HepG2; assay: Transfection with pCMV GFP plasmid, % GFP positive cells by FACS (Table 3); conditions: HepG2, DOPE
Procedure: as §1, §6, §7, §2, §3, §4, §5
For % surv mean in this document: tested at 6.8 µM.

Compound | % surv cells ([4]; first value) [%] | % surv cells Mean [4] [%] | % surv cells ([4]; second value) [%] | % surv cells ([1]; Table 4) [%] | % surv cells ([1]; Table 5) [%] | % surv cells ([1]; Table 6) [%] | % surv ([1]; first value) [%] | % surv mean [1] [%] | % surv ([1]; second value) [%] | % TE ([2]; Table 4) [%] | % TE ([2]; Table 5) [%] | % TE ([2]; Table 6) [%] | % TE ([2]; Table 11, first value) [%] | % TE mean ([2]; Table 11) [%] | % TE ([2]; Table 11, second value) [%] | % TE ([5]; first value) [%] | % TE mean [5] [%] | % TE ([5]; second value) [%] | also measured
CCCCCCCC/C=C\CCCCCCCCCc1cc[n+](CCCCCCCC/C=C\CCCCCCCC)cc1.[Cl-] [SF6, 1-(9′-cis-octadecenyl)-4-(10″-cis-nonadecenyl) pyridinium Chloride] | – | – | – | – | – | – | – | – | – | – | – | – | – | – | – | – | – | – | % surv cells ([1]; Table 1): 75.3%; % surv cells ([1]; Table 2): 47.3%; % surv cells ([1]; Table 7): 84.06%; % surv cells ([1]; Table 8): 57.21%; % surv cells ([1]; Table 9): 70.01%; % surv cells ([1]; Table 10): 61.57%; % TE ([2]; Table 1): 14.44%; % TE ([2]; Table 2): 11.48%; % TE ([2]; Table 7): 30.91%; % TE ([2]; Table 8): 9.96%; % TE ([2]; Table 9): 3.92%; % TE ([2]; Table 10): 9.14%; toxicity towards the cells [3]: marginal toxicity
CCCCCCCC/C=C\CCCCCCCC[n+]1ccc(CCCCCCCCCCC)cc1 [SF43, 1-(9′-cis-octadecenyl)-4-undecyl-pyridinium Chloride] | 52.11 | 53.845 | 55.58 | 68.12 | 85.51 | 86.86 | 85.42 | 84.395 | 83.37 | 9.18 | 0.55 | 10.22 | 24.6 | 24.2 | 23.8 | 5.71 | 5.805 | 5.9 | –
CCCCCCCC/C=C\CCCCCCCC[n+]1ccc(CCCCCCCCCCCCCCC)cc1.[Cl-] [SF44, 1-(9′-cis-octadecenyl)-4-pentadecyl-pyridinium Chloride] | 45.21 | 49.18 | 53.15 | 66.51 | 92.1 | 93.99 | 90.36 | 88.91 | 87.46 | 10.13 | 1.64 | 8.89 | 9.1 | 8.67 | 8.24 | 12.53 | 11.185 | 9.84 | –
CCCCCCCC/C=C\CCCCCCCC[n+]1ccc(CCCCCCCCCCCCCCCCC)cc1.[Cl-] [SF45, 1-(9′-cis-octadecenyl)-4-(heptadecyl) pyridinium Chloride] | 40.24 | 31.565 | 22.89 | 67.4 | 93.02 | 92.61 | 90.01 | 87.55 | 85.09 | 9.71 | 3.38 | 5.35 | 0.27 | 0.15 | 0.03 | 8.93 | 6.465 | 4 | –
CCCCCCCC/C=C\CCCCCCCCCc1cc[n+](CCCCCCCCCCCCCCCCCC)cc1.[Cl-] [SF46, 1-stearyl-4-(10′-cis-nonadecenyl)-pyridinium Chloride] | 16.79 | 15.445 | 14.1 | 72.57 | 76.34 | 93.55 | 87.02 | 87.02 | – | 9.17 | 2.71 | 1.11 | 10.6 | 10.6 | – | 11.65 | 9.07 | 6.49 | –
CCCCCCCCCCCCOC(=O)c1cc[n+](CCCCCCCCCCCC)cc1.[Cl-] [SF53, 1-dodecyl-4-(-carbo-(dodecyloxy)) pyridinium Chloride] | 37.51 | 37.51 | – | 65.91 | 91.6 | 91.74 | 84.51 | 84.51 | – | 9.04 | 0.71 | 0.56 | 6.67 | 6.67 | – | 2.13 | 2.13 | – | –
